Source: ChEMBL document CHEMBL4028801, “A multifactorial approach to hepatobiliary transporter assessment enables improved therapeutic compound development” (Toxicol Sci, 2013)

Key:
[1] = target: Bile salt export pump (Homo sapiens, UniProt O95342); assay: Inhibition of human BSEP overexpressed in Sf9 cell membrane vesicles assessed as uptake of [3H]-taurocholate in presence of ATP measured after 15 to 20 mins by membrane vesicle transport assay; format: ADME, cell-based
[2] = target: T1, ATP-binding cassette sub-family C member 4 (Homo sapiens, UniProt O15439); assay: Inhibition of human MRP4 overexpressed in Sf9 cell membrane vesicles assessed as uptake of [3H]-estradiol-17beta-D-glucuronide in presence of ATP and GSH measured after 20 mins by membrane vesicle transport assay; format: ADME, cell-based
T1 sequence (O15439 whole entry): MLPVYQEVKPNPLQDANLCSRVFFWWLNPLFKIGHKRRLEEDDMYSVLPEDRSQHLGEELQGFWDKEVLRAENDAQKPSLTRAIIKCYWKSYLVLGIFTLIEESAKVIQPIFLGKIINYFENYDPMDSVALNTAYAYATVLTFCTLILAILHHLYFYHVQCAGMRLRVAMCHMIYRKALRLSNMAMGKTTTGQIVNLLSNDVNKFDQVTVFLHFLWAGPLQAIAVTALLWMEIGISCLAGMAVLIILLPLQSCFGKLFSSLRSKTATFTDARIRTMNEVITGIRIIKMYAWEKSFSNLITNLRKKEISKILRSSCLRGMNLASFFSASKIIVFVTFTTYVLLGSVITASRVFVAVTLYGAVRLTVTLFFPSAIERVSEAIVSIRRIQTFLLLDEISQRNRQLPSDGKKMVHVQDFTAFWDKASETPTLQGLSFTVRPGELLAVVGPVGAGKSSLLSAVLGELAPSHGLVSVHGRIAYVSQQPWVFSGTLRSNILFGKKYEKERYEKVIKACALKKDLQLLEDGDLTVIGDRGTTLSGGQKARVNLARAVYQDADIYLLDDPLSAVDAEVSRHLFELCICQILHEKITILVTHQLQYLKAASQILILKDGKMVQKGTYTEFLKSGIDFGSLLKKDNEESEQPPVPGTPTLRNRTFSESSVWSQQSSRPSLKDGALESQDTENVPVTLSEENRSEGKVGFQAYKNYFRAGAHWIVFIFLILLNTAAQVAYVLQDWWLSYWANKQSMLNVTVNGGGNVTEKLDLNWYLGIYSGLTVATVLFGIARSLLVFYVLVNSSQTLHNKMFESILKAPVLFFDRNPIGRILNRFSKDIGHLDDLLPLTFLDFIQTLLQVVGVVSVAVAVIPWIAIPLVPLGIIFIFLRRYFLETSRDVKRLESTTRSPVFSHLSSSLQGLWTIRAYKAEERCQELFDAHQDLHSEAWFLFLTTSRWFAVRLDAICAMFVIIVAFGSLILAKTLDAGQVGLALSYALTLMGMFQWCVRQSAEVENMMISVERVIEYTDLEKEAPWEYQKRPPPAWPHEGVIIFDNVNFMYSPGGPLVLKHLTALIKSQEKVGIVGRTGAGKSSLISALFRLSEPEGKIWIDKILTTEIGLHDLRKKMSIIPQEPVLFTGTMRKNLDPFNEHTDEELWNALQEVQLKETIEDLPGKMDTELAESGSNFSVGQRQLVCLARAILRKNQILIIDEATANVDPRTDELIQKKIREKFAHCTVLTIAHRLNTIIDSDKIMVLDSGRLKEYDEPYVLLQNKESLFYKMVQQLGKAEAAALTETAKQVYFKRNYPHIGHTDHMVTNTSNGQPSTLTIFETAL

[3] = AUC in human at 10 mg, po after 24 hrs; format: ADME, organism-based; set-up: time < 24 hr, dose 10 mg, route oral; details: in vivo
[4] = Drug concentration at steady state in human at 10 mg, po after 24 hrs; format: ADME, organism-based; details: in vivo, read-out: Css
[5] = Ratio of drug concentration at steady state in human at 10 mg, po after 24 hrs to IC50 for human BSEP overexpressed in Sf9 insect cells; format: ADME, organism-based; details: in vivo
[6] = target: ATP-binding cassette sub-family C member 3 (Homo sapiens, UniProt O15438); assay: Inhibition of human MRP3 overexpressed in Sf9 insect cell membrane vesicles assessed as uptake of [3H]-estradiol-17beta-D-glucuronide in presence of ATP and GSH measured after 10 mins by membrane vesicle transport assay; format: ADME, cell-based
ATP-binding cassette sub-family C member 3, sequence (O15438 whole entry): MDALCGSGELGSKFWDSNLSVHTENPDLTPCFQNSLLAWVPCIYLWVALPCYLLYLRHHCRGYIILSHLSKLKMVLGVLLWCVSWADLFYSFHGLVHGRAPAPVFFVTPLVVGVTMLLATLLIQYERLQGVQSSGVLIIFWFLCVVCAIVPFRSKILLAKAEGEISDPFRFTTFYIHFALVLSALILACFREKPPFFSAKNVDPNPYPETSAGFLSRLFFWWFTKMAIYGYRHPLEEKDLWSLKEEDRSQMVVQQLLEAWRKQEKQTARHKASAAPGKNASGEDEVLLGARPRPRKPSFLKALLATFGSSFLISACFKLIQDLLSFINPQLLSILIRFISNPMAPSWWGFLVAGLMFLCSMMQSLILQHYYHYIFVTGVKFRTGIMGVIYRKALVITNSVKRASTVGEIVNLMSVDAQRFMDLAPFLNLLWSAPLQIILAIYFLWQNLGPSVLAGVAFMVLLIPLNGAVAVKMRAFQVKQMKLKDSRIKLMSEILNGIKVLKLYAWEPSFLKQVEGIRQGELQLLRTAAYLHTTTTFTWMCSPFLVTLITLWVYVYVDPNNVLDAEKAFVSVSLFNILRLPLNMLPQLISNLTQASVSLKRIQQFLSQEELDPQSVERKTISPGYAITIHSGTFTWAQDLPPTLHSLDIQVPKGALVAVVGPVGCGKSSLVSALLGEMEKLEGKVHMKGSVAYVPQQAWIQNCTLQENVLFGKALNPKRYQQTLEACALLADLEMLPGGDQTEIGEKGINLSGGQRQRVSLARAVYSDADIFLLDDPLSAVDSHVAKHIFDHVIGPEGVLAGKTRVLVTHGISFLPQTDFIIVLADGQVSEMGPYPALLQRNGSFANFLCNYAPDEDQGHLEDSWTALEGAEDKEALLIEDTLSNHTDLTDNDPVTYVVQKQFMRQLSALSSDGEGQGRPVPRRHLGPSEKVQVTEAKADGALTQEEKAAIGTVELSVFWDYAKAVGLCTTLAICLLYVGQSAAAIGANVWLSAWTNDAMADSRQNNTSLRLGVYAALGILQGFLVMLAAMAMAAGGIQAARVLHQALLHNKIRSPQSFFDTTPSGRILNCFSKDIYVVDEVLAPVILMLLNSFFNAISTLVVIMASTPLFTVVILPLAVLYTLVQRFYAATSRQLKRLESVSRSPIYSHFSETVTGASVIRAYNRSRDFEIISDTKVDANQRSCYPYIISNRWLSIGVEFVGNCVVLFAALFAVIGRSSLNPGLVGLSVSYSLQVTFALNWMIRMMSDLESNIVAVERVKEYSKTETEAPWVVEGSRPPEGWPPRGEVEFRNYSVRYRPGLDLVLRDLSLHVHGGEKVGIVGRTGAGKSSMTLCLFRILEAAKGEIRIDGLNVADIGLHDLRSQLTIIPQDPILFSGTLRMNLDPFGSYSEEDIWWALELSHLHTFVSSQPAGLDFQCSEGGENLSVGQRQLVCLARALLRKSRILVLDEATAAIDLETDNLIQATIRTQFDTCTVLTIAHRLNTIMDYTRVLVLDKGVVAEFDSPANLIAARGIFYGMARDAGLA

[7] = target: ATP-binding cassette sub-family C member 2 (Homo sapiens, UniProt Q92887); assay: Inhibition of human MRP2 overexpressed in Sf9 cell membrane vesicles assessed as uptake of [3H]-estradiol-17beta-D-glucuronide in presence of ATP and GSH measured after 20 mins by membrane vesicle transport assay
ATP-binding cassette sub-family C member 2, sequence (Q92887 whole entry): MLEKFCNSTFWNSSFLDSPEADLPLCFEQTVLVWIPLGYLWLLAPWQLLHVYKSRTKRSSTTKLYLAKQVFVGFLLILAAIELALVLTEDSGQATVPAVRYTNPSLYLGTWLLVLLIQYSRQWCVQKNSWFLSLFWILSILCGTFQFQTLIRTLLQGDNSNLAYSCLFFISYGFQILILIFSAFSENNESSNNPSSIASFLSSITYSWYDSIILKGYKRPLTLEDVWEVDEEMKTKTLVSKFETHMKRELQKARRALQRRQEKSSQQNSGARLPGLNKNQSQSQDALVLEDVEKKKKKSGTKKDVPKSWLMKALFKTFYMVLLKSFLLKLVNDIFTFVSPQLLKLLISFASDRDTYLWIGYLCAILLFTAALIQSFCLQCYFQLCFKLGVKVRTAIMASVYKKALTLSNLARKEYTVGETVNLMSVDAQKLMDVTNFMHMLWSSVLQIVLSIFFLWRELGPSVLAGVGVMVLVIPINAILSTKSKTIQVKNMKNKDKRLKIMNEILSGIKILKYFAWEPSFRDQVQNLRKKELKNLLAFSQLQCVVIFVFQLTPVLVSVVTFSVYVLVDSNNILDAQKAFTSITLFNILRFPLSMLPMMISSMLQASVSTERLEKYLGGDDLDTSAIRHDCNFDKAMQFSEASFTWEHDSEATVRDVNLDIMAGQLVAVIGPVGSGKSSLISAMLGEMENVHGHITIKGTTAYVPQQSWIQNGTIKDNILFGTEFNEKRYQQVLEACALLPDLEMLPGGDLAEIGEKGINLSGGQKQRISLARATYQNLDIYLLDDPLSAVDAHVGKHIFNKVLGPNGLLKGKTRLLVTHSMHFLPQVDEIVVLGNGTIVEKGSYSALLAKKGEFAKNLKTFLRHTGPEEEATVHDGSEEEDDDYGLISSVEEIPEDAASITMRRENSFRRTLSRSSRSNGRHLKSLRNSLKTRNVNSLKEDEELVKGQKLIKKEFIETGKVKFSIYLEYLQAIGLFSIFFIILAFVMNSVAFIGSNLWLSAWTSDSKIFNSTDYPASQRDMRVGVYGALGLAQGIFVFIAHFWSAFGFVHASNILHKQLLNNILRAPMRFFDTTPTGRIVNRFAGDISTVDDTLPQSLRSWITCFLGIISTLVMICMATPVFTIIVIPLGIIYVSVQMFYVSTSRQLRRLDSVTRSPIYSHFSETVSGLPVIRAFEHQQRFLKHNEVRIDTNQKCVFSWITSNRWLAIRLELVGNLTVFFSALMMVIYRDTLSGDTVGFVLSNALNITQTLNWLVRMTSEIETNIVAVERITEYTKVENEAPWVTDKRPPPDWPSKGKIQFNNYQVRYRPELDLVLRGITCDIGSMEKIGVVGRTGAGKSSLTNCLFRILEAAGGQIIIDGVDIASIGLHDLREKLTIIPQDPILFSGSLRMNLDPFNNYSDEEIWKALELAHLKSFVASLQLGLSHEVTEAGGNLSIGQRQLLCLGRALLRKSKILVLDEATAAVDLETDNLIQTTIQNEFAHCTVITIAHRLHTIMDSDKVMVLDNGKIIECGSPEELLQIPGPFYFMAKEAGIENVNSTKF

[8] = test system: Homo sapiens; assay: Cardiotoxicity in human at 20 to 30 mg/day, po; format: toxicity
[9] = Drug concentration at steady state in human at 1 to 40 mg, po QD after 24 hrs; format: ADME, organism-based; details: in vivo, read-out: Css
[10] = AUC in human at 1 to 40 mg, po QD after 24 hrs; format: ADME, organism-based; details: in vivo
[11] = Ratio of drug concentration at steady state in human at 0.2 mg, po QID after 6 hrs to IC50 for human BSEP overexpressed in Sf9 insect cells; format: ADME, organism-based; details: in vivo
[12] = AUC in human at 0.2 mg, po QID after 6 hrs; format: ADME, organism-based; set-up: time < 6 hr, dose 0.2 mg, route oral; details: in vivo
[13] = Ratio of drug concentration at steady state in human at 0.2 mg, po QID after 6 hrs to IC50 for human MRP4 overexpressed in Sf9 insect cells; format: ADME, organism-based; details: in vivo
[14] = Ratio of drug concentration at steady state in human at 15 to 60 mg, po QD after 24 hrs to IC50 for human BSEP overexpressed in Sf9 insect cells; format: ADME, organism-based; details: in vivo
[15] = AUC in human at 15 to 60 mg, po QD after 24 hrs; format: ADME, organism-based; details: in vivo
[16] = Drug concentration at steady state in human at 15 to 60 mg, po QD after 24 hrs; format: ADME, organism-based; details: in vivo, read-out: Css
[17] = AUC in human at 5 to 10 mg, po QD after 24 hrs; format: ADME, organism-based; details: in vivo
[18] = Ratio of drug concentration at steady state in human at 5 to 10 mg, po QD after 24 hrs to IC50 for human BSEP overexpressed in Sf9 insect cells; format: ADME, organism-based; details: in vivo
[19] = Drug concentration at steady state in human at 5 to 10 mg, po QD after 24 hrs; format: ADME, organism-based; details: in vivo, read-out: Css
[20] = Ratio of drug concentration at steady state in human at 50 mg, po QD after 24 hrs to IC50 for human BSEP overexpressed in Sf9 insect cells; format: ADME, organism-based; details: in vivo
[21] = Drug concentration at steady state in human at 50 mg, po QD after 24 hrs; format: ADME, organism-based; details: in vivo, read-out: Css
[22] = AUC in human at 50 mg, po QD after 24 hrs; format: ADME, organism-based; set-up: dose 50 mg, time < 24 hr, route oral; details: in vivo
[23] = test system: Homo sapiens; assay: Drug concentration at steady state in human at 1 ug/ml, po QD after 24 hrs; format: ADME, organism-based; details: in vivo
[24] = Ratio of drug concentration at steady state in human at 1 ug/ml, po QD after 24 hrs to IC50 for human BSEP overexpressed in Sf9 insect cells; format: ADME, organism-based
[25] = AUC in human at 1 ug/ml, po QD after 24 hrs; format: ADME, organism-based; set-up: dose 1 ug/ml, time < 24 hr, route oral; details: in vivo
[26] = Ratio of drug concentration at steady state in human administered intraocularly as 1 drop QD of 0.03% solution after 24 hrs to IC50 for human BSEP overexpressed in Sf9 insect cells; format: ADME; details: topical_or_ocular
[27] = AUC in human at 9 mg, po QD after 24 hrs; format: ADME, organism-based; set-up: time < 24 hr, dose 9 mg, route oral; details: in vivo
[28] = Ratio of drug concentration at steady state in human at 9 mg, po QD after 24 hrs to IC50 for human MRP4 overexpressed in Sf9 insect cells; format: ADME, organism-based; details: in vivo
[29] = Ratio of drug concentration at steady state in human at 9 mg, po QD after 24 hrs to IC50 for human BSEP overexpressed in Sf9 insect cells; format: ADME, organism-based; details: in vivo
[30] = Drug concentration at steady state in human at 9 mg, po QD after 24 hrs; format: ADME, organism-based; details: in vivo, read-out: Css
[31] = Ratio of drug concentration at steady state in human at 9 mg, po QD after 24 hrs to IC50 for human MRP3 overexpressed in Sf9 insect cells; format: ADME, organism-based; details: in vivo

Bile salt export pump, sequence (O95342 whole entry): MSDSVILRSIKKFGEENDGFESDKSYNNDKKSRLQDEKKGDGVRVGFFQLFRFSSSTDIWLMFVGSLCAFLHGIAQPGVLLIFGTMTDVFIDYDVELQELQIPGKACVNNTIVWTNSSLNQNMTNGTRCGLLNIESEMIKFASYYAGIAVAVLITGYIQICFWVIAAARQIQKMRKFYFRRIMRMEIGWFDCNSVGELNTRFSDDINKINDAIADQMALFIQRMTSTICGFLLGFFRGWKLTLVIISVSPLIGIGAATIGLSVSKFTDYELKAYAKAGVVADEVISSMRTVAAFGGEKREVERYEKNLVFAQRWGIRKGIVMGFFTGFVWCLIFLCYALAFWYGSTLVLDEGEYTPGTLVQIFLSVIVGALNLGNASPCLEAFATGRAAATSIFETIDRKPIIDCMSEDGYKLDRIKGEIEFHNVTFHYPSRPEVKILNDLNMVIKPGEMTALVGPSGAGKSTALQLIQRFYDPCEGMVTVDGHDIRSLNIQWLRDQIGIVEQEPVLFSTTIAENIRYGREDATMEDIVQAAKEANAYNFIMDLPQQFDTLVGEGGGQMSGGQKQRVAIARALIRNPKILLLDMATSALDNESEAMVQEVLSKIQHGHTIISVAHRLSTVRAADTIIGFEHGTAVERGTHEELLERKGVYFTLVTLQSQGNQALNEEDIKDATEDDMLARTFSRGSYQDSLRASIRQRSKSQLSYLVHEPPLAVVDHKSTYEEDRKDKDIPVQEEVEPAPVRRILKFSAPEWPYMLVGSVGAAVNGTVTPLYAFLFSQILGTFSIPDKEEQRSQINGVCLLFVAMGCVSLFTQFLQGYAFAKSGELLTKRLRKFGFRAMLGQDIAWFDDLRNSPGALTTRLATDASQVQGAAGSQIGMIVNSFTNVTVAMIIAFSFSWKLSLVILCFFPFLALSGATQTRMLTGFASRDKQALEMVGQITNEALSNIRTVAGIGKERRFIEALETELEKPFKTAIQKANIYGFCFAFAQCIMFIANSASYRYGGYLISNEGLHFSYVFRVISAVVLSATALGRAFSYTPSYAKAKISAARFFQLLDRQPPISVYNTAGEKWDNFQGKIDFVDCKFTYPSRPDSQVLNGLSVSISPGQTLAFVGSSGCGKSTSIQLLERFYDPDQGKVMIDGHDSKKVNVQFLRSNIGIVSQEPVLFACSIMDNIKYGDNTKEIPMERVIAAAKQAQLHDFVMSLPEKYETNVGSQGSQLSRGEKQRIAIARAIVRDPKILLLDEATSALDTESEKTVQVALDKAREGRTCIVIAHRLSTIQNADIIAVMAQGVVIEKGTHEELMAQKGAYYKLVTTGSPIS

SMILES | IC50 [1] [µM] | IC50 [2] [µM] | IC50 [6] [µM] | IC50 [7] [µM] | further results
O=C1[C@H](CC[C@H](O)c2ccc(F)cc2)[C@@H](c2ccc(O)cc2)N1c1ccc(F)cc1 [EZETIMIBE] | 56 | > 133 | > 133 | > 133 | AUC at 24 h [3]: 3.2 µM·h; concentration at 24 h [4]: 134 nM; Ratio [5]: 0.002
COc1ccc(CCN2CCC(Nc3nc4ccccc4n3Cc3ccc(F)cc3)CC2)cc1 [ASTEMIZOLE] | – | > 133 | > 133 | > 133 | AUC at 24 h [3]: 0.024 µM·h; Activity [8]: Toxic
Cl.OCCN1CCN(CCCN2c3ccccc3Sc3ccc(C(F)(F)F)cc32)CC1 | 87.3 | > 133 | > 133 | > 133 | concentration at 24 h [9]: 1 nM; AUC at 24 h [10]: 0.03 µM·h
CCCC[C@](C)(O)C/C=C/[C@H]1[C@H](O)CC(=O)[C@@H]1CCCCCCC(=O)OC | 27.7 | 46 | > 133 | > 133 | Ratio [11]: 0.00001; AUC at 6 h [12]: 0.001 µM·h; Ratio [13]: 0
Cc1ccccc1C(=O)Nc1ccc(C(=O)N2CCCC(O)c3cc(Cl)ccc32)c(C)c1 (configuration not stated) [TOLVAPTAN] | 9.99 | > 133 | > 133 | > 133 | Ratio [14]: 0.04; AUC at 24 h [15]: 9.49 µM·h; concentration at 24 h [16]: 396 nM
CC(C)(C)C(=O)OCOP(=O)(COCCn1cnc2c(N)ncnc21)OCOC(=O)C(C)(C)C [ADEFOVIR DIPIVOXIL] | 46 | > 133 | > 133 | > 133 | AUC at 24 h [17]: 0.765 µM·h; Ratio [18]: 0.00069; concentration at 24 h [19]: 32 nM
CC(O)(CS(=O)(=O)c1ccc(F)cc1)C(=O)Nc1ccc(C#N)c(C(F)(F)F)c1 (configuration not stated) [BICALUTAMIDE] | 79.6 | > 133 | > 133 | > 133 | Ratio [20]: 0.263; concentration at 24 h [21]: 20900 nM; AUC at 24 h [22]: 502 µM·h
C=C1/C(=C\C=C2/CCC[C@]3(C)[C@@H]([C@H](C)CCCC(C)(C)O)CC[C@@H]23)C[C@@H](O)C[C@@H]1O [CALCITRIOL] | 39.7 | > 133 | > 133 | > 133 | Css [23]: 0 nM; Ratio [24]: 1.6e-6; AUC at 24 h [25]: 0.002 µM·h
CCNC(=O)CCC/C=C\C[C@@H]1[C@@H](/C=C/[C@@H](O)CCc2ccccc2)[C@H](O)C[C@@H]1O [BIMATOPROST] | 40.4 | > 133 | > 133 | > 133 | Ratio [26]: 2e-7
CCCC1O[C@@H]2C[C@H]3[C@@H]4CCC5=CC(=O)C=C[C@]5(C)[C@H]4[C@@H](O)C[C@]3(C)[C@]2(C(=O)CO)O1 (some centres not stated) [BUDESONIDE] | 46 | 37 | 54.5 | > 133 | AUC at 24 h [27]: 0.0151 µM·h; Ratio [28]: 0; Ratio [29]: 0.00001; concentration at 24 h [30]: 0.629 nM; Ratio [31]: 0
